The text below walks through data of patent publication US20240199546A1, “INHIBITORS OF SOLUTE CARRIER FAMILY 6A MEMBER 19 (SLC6A19) AND METHODS OF USE THEREOF” (Maze Therapeutics, Inc., priority 2022, published 2024).

The assay has as its target T1, human SLC6A19 and TMEM27 (Homo sapiens, UniProt Q695T7).
T1 construct: expressed in transfected cells
T1 sequence (Q695T7 1-634): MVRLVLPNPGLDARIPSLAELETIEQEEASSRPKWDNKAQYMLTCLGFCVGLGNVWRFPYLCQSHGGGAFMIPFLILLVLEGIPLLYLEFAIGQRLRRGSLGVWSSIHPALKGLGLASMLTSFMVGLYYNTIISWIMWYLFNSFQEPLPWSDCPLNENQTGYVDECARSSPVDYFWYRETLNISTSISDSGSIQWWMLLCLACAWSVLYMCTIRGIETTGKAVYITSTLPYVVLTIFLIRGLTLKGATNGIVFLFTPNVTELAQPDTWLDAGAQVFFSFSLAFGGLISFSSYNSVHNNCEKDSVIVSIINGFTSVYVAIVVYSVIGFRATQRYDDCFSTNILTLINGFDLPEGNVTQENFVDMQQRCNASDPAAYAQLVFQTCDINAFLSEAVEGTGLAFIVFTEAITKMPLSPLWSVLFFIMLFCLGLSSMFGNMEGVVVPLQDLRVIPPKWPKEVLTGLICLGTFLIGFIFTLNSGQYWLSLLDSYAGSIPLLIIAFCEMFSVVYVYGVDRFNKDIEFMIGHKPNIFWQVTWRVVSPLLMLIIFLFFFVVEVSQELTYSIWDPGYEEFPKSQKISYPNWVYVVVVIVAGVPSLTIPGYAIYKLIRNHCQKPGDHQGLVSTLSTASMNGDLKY
T1 sequence (Q9HBJ8 15-222 partner): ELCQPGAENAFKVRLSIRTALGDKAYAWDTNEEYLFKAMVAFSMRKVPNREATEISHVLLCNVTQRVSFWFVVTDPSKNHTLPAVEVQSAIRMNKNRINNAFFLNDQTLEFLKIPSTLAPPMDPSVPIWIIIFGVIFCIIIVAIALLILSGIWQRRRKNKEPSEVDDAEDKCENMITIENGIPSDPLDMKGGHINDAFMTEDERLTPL
The assay can be described thus: 13C6,15N-isoleucine uptake in CHO cells with doxycycline-inducible expression of human SLC6A19 and TMEM27, RapidFire mass spectrometry (Example B-2). The note with it: read-out: SLC6A19_RapidFire Uptake Assay IC50. It counts as cell-based. The method, then:
Assay ready vials of CHO cells with doxycycline inducible expression of human SLC6A19 and TMEM27 were thawed, plated in T175 flasks containing DMEM/F12 media, 10% FBS, 1% Penicillin-Streptomycin, 1× UltraGlutamate, 1 mM Sodium Pyruvate, Sodium Bicarbonate (7.5 mL of 7.5% solution in 500 mL media final), 5 μg/mL Blasticidin, 150 μg/mL Hygromycin B Gold, and 500 μg/mL G418, and incubated (humidified, 37° C. with 5% CO2) for 48 hours. Media was then removed, flasks were washed with 20 mL of DPBS, and 5 mL of TrypLE™ Express was added to each flask to initiate cell dissociation. After 5 minutes, 10 mL of cell culture media was added to each flask and mixed. The cell suspension was collected and centrifuged for 5 minutes at 200×g. The supernatant was removed, and the pellet was resuspended in 10 mL of cell culture media. Resuspended cells were counted using a Vi-Cell. 30 μL/well (20,000 cells/well) of cell suspension was added to Poly-D-Lysine 384-well black/clear plates. Plates were incubated (humidified, 37° C. with 5% CO2) for 24 hours. To induce expression of human SLC6A19 and TMEM27, 10 μL of assay culture media containing 4 μg/mL doxycycline was added to each well. Assay plates were then incubated (humidified, 37° C. with 5% CO2) overnight. After incubation, the media was removed, and wells were washed 3 times with 40 μL of warmed DPBS. Next, 10 μL of warmed assay buffer (137 mM NaCl, 5 mM KCl, 1 mM CaCl2), 1 mM MgCl2, 10 mM HEPES, 10 mM glucose, pH 7.2) was added to each well. 10 μL/well of test compound or positive control compound to define 0% activity (i.e., 100% inhibition), was then added into each well. All compounds were plated in a duplicate 10-point dilution series that consisted of 2-fold dilutions. The plates were incubated (humidified, 37° C. with 5% C2) with compound for 20 minutes. Afterwards, 20 μL/well of 2 mM 13C6,15N-1-isoleucine was added to each well and plates were incubated again (humidified, 37° C. with 5% C02) for another 20 minutes. Assay buffer was then removed, and plates were washed. 70 μL/well of stop solution (75% acetonitrile, 25% HPLC grade water, 250 nM 1-leucine-1-13C (RapidFire standard)) was added to each well. The plates were sealed and then placed in a −20° C. freezer for 20 minutes. The plates were thawed at room temperature for 20 minutes and then centrifuge for 20 minutes at 3000 rpm. Using an ABSciex API4000 mass spectrometer, processed samples were loaded onto the graphitic carbon SPE-column. The time for aspiration, load/wash, elution and re-equilibration time was 600, 1500, 3000 and 500 milliseconds, respectively. Peak areas were calculated using RapidFire Integrator software.
`CC1(C(=O)NCc2cc3ccc(OCC4CCCC4)cc3[nH]2)CC1` [Compound 187, N-((6-(cyclopentylmethoxy)-1H-indol-2-yl)methyl)-1-methylcyclopropane-1-carboxamide]: the IC50 stood at 178 nM.

Regarding `Cn1nnc(COc2ccc3cc(CNC(=O)C4(C)CC4)[nH]c3c2)n1` [Compound 174, 1-methyl-N-((6-((2-methyl-2H-tetrazol-5-yl)methoxy)-1H-indol-2-yl)methyl)cyclopropane-1-carboxamide], the 50% inhibitory concentration (IC50) was 2080 nM.

With `O=C(NCc1cc2ccc(OCc3ccon3)cc2[nH]1)N1CCCC1` [Compound 104, N-((6-(isoxazol-3-ylmethoxy)-1H-indol-2-yl)methyl)pyrrolidine-1-carboxamide], the half-maximal inhibitory concentration (IC50) is 452 nM.

For `CC1(C(=O)NCc2cc3ccc(OCc4cccnc4)cc3[nH]2)CC1` [Compound 55, 1-methyl-N-((6-(pyridin-3-ylmethoxy)-1H-indol-2-yl)methyl)cyclopropane-1-carboxamide], the half-maximal inhibitory concentration (IC50) worked out at 427 nM.

For the compound `CN(Cc1ccccc1)c1ccc2cc(CNC(=O)C3(C)CC3)[nH]c2c1` [Compound 2, N-((6-(benzyl(methyl)amino)-1H-indol-2-yl)methyl)-1-methylcyclopropane-1-carboxamide], the IC50 stood at 992 nM.

For `Cc1nnc(COc2ccc3cc(CNC(=O)C4(C)CC4)[nH]c3c2)o1` [Compound 167, 1-methyl-N-((6-((5-methyl-1,3,4-oxadiazol-2-yl)methoxy)-1H-indol-2-yl)methyl)cyclopropane-1-carboxamide], the IC50 amounted to 7500 nM.

In the case of `CC1(C(=O)NCc2cc3ccc(CCc4ccon4)cc3[nH]2)CC1` [Compound 75, N-((6-(2-(isoxazol-3-yl)ethyl)-1H-indol-2-yl)methyl)-1-methylcyclopropanecarboxamide], the concentration for half-maximal inhibition (IC50) came to 464 nM.

Consider `CC1(C(=O)NCc2cc3cc(Cl)c(Cc4ccon4)cc3[nH]2)CC1` [Compound 159, N-((5-chloro-6-(isoxazol-3-ylmethyl)-1H-indol-2-yl)methyl)-1-methylcyclopropanecarboxamide], for which the IC50 was 493 nM.

In the case of `CC1(C(=O)NCc2cc3cc(F)c(OCc4cnco4)cc3[nH]2)CC1` [Compound 57, N-((5-fluoro-6-(oxazol-5-ylmethoxy)-1H-indol-2-yl)methyl)-1-methylcyclopropane-1-carboxamide], the IC50 was determined as 577 nM.

As for `CC1(C(=O)NCc2cc3cc(Cl)c(OCc4cnsn4)cc3[nH]2)CC1` [Compound 183, N-((6-((1,2,5-thiadiazol-3-yl)methoxy)-5-chloro-1H-indol-2-yl)methyl)-1-methylcyclopropane-1-carboxamide], the IC50 is 39 nM.

`O=C(NCc1cc2cc(Cl)c(OCc3ccon3)cc2[nH]1)N1CCCC1` [Compound 112, N-((5-chloro-6-(isoxazol-3-ylmethoxy)-1H-indol-2-yl)methyl)pyrrolidine-1-carboxamide]: the IC50 stood at 193 nM.

For the compound `Cc1nc(COc2cc3[nH]c(CNC(=O)C4(C)CC4)cc3cc2Cl)co1` [Compound 182, N-((5-chloro-6-((2-methyloxazol-4-yl)methoxy)-1H-indol-2-yl)methyl)-1-methylcyclopropane-1-carboxamide], the concentration for half-maximal inhibition (IC50) was found to be 91 nM.

As for `CC1(C(=O)NCc2cc3ccc(NCc4ccccn4)cc3[nH]2)CC1` [Compound 4, 1-methyl-N-((6-((pyridin-2-ylmethyl)amino)-1H-indol-2-yl)methyl)cyclopropane-1-carboxamide], the IC50 worked out at 1830 nM.

For `CC1(C(=O)NCc2cc3ccc(OCc4nccs4)cc3[nH]2)CC1` [Compound 43, 1-methyl-N-((6-(thiazol-2-ylmethoxy)-1H-indol-2-yl)methyl)cyclopropane-1-carboxamide], the half-inhibitory concentration (IC50) was determined as 192 nM.

Turning to `Cc1cc(COc2ccc3cc(CNC(=O)C4(C)CC4)[nH]c3c2)no1` [Compound 50, 1-methyl-N-((6-((5-methylisoxazol-3-yl)methoxy)-1H-indol-2-yl)methyl)cyclopropane-1-carboxamide], the IC50 was determined as 193 nM.

On to `CC1(C(=O)NCc2cc3ccc(OCc4ccccn4)cc3[nH]2)CC1` [Compound 54, 1-methyl-N-((6-(pyridin-2-ylmethoxy)-1H-indol-2-yl)methyl)cyclopropane-1-carboxamide], for which the IC50 is 155 nM.

As for `CC1(C(=O)NCc2[nH]c3cc(OCc4ccccc4)ccc3c2Cl)CC1` [Compound 158, N-((6-(benzyloxy)-3-chloro-1H-indol-2-yl)methyl)-1-methylcyclopropane-1-carboxamide], the half-inhibitory concentration (IC50) came to 188 nM.

Turning to `Cc1nc(COc2ccc3cc(CNC(=O)C4(C)CC4)[nH]c3c2)cs1` [Compound 179, 1-methyl-N-((6-((2-methylthiazol-4-yl)methoxy)-1H-indol-2-yl)methyl)cyclopropane-1-carboxamide], the half-inhibitory concentration (IC50) was found to be 1420 nM.

Turning to `Cn1cc(COc2ccc3cc(CNC(=O)C4(C)CC4)[nH]c3c2)nn1` [Compound 168, 1-methyl-N-((6-((1-methyl-1H-1,2,3-triazol-4-yl)methoxy)-1H-indol-2-yl)methyl)cyclopropane-1-carboxamide], the concentration for half-maximal inhibition (IC50) came out at 7440 nM.

For `Cc1cc(Oc2ccc3cc(CNC(=O)C4(C)CC4)[nH]c3c2)no1` [Compound 78, 1-methyl-N-((6-((5-methylisoxazol-3-yl)oxy)-1H-indol-2-yl)methyl)cyclopropanecarboxamide], the concentration for half-maximal inhibition (IC50) is 5180 nM.

For the compound `CCC(=O)NCc1cc2ccc(OCc3cc(C)on3)cc2[nH]1` [Compound 47, N-((6-((5-methylisoxazol-3-yl)methoxy)-1H-indol-2-yl)methyl)propionamide], the IC50 was determined as 698 nM.

For `CNC(=O)NCc1cc2ccc(OCc3ccon3)cc2[nH]1` [Compound 107, 1-((6-(isoxazol-3-ylmethoxy)-1H-indol-2-yl)methyl)-3-methylurea], the IC50 came to 5890 nM.

For `CC1(C(=O)NCc2cc3ccc(OCC4CCOC4)cc3[nH]2)CC1` (stereo not drawn) [Compound 188, 1-methyl-N-((6-((tetrahydrofuran-3-yl)methoxy)-1H-indol-2-yl)methyl)cyclopropane-1-carboxamide], the half-inhibitory concentration (IC50) stood at 4450 nM.

Turning to `CC1(C(=O)NCc2cc3cc(Cl)c(OCc4cccnc4)cc3[nH]2)CC1` [Compound 39, N-((5-chloro-6-(pyridin-3-ylmethoxy)-1H-indol-2-yl)methyl)-1-methylcyclopropane-1-carboxamide], the half-maximal inhibitory concentration (IC50) came out at 370 nM.

For `Cc1nc(COc2ccc3cc(CNC(=O)C4(C)CC4)[nH]c3c2)co1` [Compound 180, 1-methyl-N-((6-((2-methyloxazol-4-yl)methoxy)-1H-indol-2-yl)methyl)cyclopropane-1-carboxamide], the half-inhibitory concentration (IC50) turned out to be 563 nM.

For the compound `CCC(=O)NCc1cc2ccc(NCc3ccccc3)cc2[nH]1` [Compound 1, N-((6-(benzylamino)-1H-indol-2-yl)methyl)propionamide], the IC50 came out at 5540 nM.

For the compound `CNC(=O)NCc1cc2ccc(OCc3cocn3)cc2[nH]1` [Compound 108, 1-methyl-3-((6-(oxazol-4-ylmethoxy)-1H-indol-2-yl)methyl)urea], the IC50 turned out to be 5570 nM.

As a reminder, the IC50 is the midpoint of a concentration-inhibition curve.
